Results published in patent publication US20080249033A1, “Carbamate Linked Macrolides Useful For The Treatment Of Microbial Infections” (priority 2004, published 2008).

Key:
Format in all cases: cell-based
[1] = tested on: S. aureus Smith ATCC 0329; assay: MIC, microtiter broth serial dilution test; conditions: Staphylococcus aureus, ATCC0329
S. pneumoniae 0541 = assay: MIC, microtiter broth serial dilution test; conditions: Streptococcus pneumoniae
S. pyogenes 0542 = assay: MIC, microtiter broth serial dilution test; conditions: Streptococcus pyogenes
E. faecalis ATCC 0004 = assay: MIC, microtiter broth serial dilution test; conditions: Enterococcus faecalis, ATCC0004
H. influenzae ATCC 0529 = assay: MIC, microtiter broth serial dilution test; conditions: Haemophilus influenzae, ATCC0529
[2] = tested on: erythromycin resistant strains of Streptococcus pneumoniae; assay: MIC, erythromycin resistant strains
[3] = tested on: erythromycin resistant strains of Streptococcus pyogenes; assay: MIC, erythromycin resistant strains
M. catarrhalis ATCC 0324 = assay: MIC, microtiter broth serial dilution test; conditions: Moraxella catarrhalis, ATCC0324

SMILES: CC[C@H]1OC(=O)[C@H](C)[C@@H](OC2C[C@@](C)(OC)[C@@H](OC(=O)NCCOCCOCCNc3cc4c(=O)c(C(=O)O)cn(C5CC5)c4cc3Cl)[C@H](C)O2)[C@H](C)[C@@H](OC2O[C@H](C)C[C@H](N(C)C)[C@H]2O)[C@](C)(OC)C[C@@H](C)C(=O)[C@H](C)[C@@H](O)[C@]1(C)O (some centres unmarked) [Example 1, 4″-O-2-{2-[2-(3-Carboxy-7-chloro-1-cyclopropyl-4-oxo-1,4-dihydro-quinolin-6-ylamino)-ethoxy]-ethoxy}-ethylcarbamoyl-6-O-methyl erythromycin A]
- MIC [1]: ≤ 0.125 µg/mL
- MIC (S. pneumoniae 0541): ≤ 0.125 µg/mL
- MIC (S. pyogenes 0542): ≤ 0.125 µg/mL
- MIC (E. faecalis ATCC 0004): ≤ 0.125 µg/mL
- MIC (H. influenzae ATCC 0529): ≤ 2 µg/mL
- MIC [2]: ≤ 0.125 µg/mL
- MIC [3]: ≤ 0.125 µg/mL

SMILES: CC[C@H]1OC(=O)[C@H](C)[C@@H](OC2C[C@@](C)(OC)[C@H](OC(=O)NCCOCCOCCNc3cc4c(=O)c(C(=O)O)cn(C5CC5)c4cc3Cl)[C@@H](C)O2)[C@H](C)[C@@H](O[C@@H]2O[C@H](C)CC(N(C)C)[C@H]2O)[C@](C)(O)C[C@@H](C)CN(C)[C@H](C)[C@@H](O)[C@]1(C)O (some centres unmarked) [Example 2, 4″-O-2-{2-[2-(3-Carboxy-7-chloro-1-cyclopropyl-4-oxo-1,4-dihydro-quinolin-6-ylamino)-ethoxy]-ethoxy}-ethylcarbamoyl-azithromycin]
- MIC [1]: ≤ 0.125 µg/mL
- MIC (S. pneumoniae 0541): ≤ 0.125 µg/mL
- MIC (S. pyogenes 0542): ≤ 0.125 µg/mL
- MIC (E. faecalis ATCC 0004): ≤ 0.125 µg/mL
- MIC (H. influenzae ATCC 0529): ≤ 2 µg/mL
- MIC [2]: ≤ 0.125 µg/mL
- MIC [3]: ≤ 0.125 µg/mL

SMILES: CC[C@H]1OC(=O)[C@H](C)[C@@H](O[C@H]2C[C@@](C)(OC)[C@@H](OC(=O)NCCOCCOCC#Cc3ccc4c(c3)c(=O)c(C(=O)O)cn4CC)[C@H](C)O2)[C@H](C)[C@@H](O[C@@H]2O[C@H](C)CC(N(C)C)[C@H]2O)[C@](C)(O)C[C@@H](C)CN(C)[C@H](C)[C@@H](O)[C@]1(C)O (some centres unmarked) [Example 3, 4″-(2-{2-[3-(3-Carboxy-1-ethyl-4-oxo-1,4-dihydro-quinolin-6-yl)-prop-2-ynyloxy]-ethoxy}-ethylcarbamoyl)-azithromycin]
- MIC [1]: ≤ 0.125 µg/mL
- MIC (S. pneumoniae 0541): ≤ 0.125 µg/mL
- MIC (S. pyogenes 0542): ≤ 0.125 µg/mL
- MIC (E. faecalis ATCC 0004): ≤ 0.125 µg/mL
- MIC (H. influenzae ATCC 0529): ≤ 0.125 µg/mL
- MIC (M. catarrhalis ATCC 0324): ≤ 0.5 µg/mL

SMILES: CC[C@H]1OC(=O)[C@H](C)[C@@H](O[C@H]2C[C@@](C)(OC)[C@@H](OC(=O)NCCOCCOCCCc3ccc4c(c3)c(=O)c(C(=O)O)cn4CC)[C@H](C)O2)[C@H](C)[C@@H](O[C@@H]2O[C@H](C)CC(N(C)C)[C@H]2O)[C@](C)(O)C[C@@H](C)CN(C)[C@H](C)[C@@H](O)[C@]1(C)O (some centres unmarked) [Example 4, 4,1-(2-{2-[3-(3-Carboxy-1-ethyl-4-oxo-1,4-dihydro-quinolin-6-yl)-propoxy]-ethoxy}-ethylcarbamoyl)-azithromycin]
- MIC [1]: ≤ 0.125 µg/mL
- MIC (S. pneumoniae 0541): ≤ 0.125 µg/mL
- MIC (S. pyogenes 0542): ≤ 0.125 µg/mL
- MIC (E. faecalis ATCC 0004): ≤ 0.125 µg/mL
- MIC (H. influenzae ATCC 0529): ≤ 0.125 µg/mL
- MIC (M. catarrhalis ATCC 0324): ≤ 0.5 µg/mL
